Values after ≈ are worked out from the molar mass of the structure shown.
Columns and labels:
[1] = system: P. aeruginosa PA14; test: Colony forming units (CFU) counting after 4-hour treatment; format: cell-based; conditions: rich media, PA14, 2×MIC, CFU/mL
Experimental: Data points represent 3 biological replicates with 3 technical replicates. Mean±SD are shown.
P. aeruginosa PA14 overnight cultures were diluted 1:100 and grown to exponential phase (OD600=0.4-0.6). Cultures were diluted 1:10 and treated with antibiotic. At each time point, 150 μL of culture was removed, serial diluted 1:10 six times, and plated onto LB Agar plates. Plates were grown overnight at 37° C. after which visible colonies were counted. CFU/mL was reported from dilutions in which ˜10-100 single colonies were visible.

[2] = biological target: T1, purified human DHFR (Homo sapiens, UniProt P00374); test: Human DHFR in vitro assay; format: biochemical
T1 construct: purchased R&D Systems 8456-DR
Experimental: FIG. 1E is an analogous assay to FIG. 2B using purified human DHFR.
Human purified DHFR was purchased from R&D Systems (8456-DR). DHFR activity was assayed by monitoring the decrease in absorbance by NADPH at […]. DHFR enzyme (0.5 μg/mL), dihydrofolic acid (100 μM), and different concentrations of methotrexate, fluorofolin, or DMSO control was dissolved in 200 μL of Tris buffer (pH 7.5, Tris salt concentration 25 mM). Reaction was initiated by adding NADPH in a 10× stock (1 mM for final concentration 100 μM), and absorbance at 340 nm was monitored over time by Cytation 5 reader (Agilent). Activity was normalized to the DMSO control.

[3] = system: sheep red blood cells
[4] = system: S. aureus NRS384; test: MIC, WuXi, Mueller-Hinton Broth; format: cell-based; conditions: Staphylococcus aureus, performed by WuXi in Mueller-Hinton Broth
Experimental: (§1) For MICs calculations performed by WuXi (Shanghai, China), MIC was calculated as the lowest concentration that inhibits visible growth after 18 hours. 4-8 bacterial colonies of strains of interest were vortexed in saline and adjusted to an OD600 of 0.2. Strains were diluted 1:200 into CAMHB media into 96-well plates. Antibiotics were serially diluted 1:3 in DMSO, and 1 μL of each dilution was added to bacteria. The plates were incubated for 18-20 hours at 37° C. before observation.

[5] = system: S. typhimurium CMCC 50115; test: MIC, WuXi, Mueller-Hinton Broth; format: cell-based; conditions: Salmonella enterica, performed by WuXi in Mueller-Hinton Broth
Experimental: as §1

[6] = system: E. faecalis ATCC 51575; test: MIC, WuXi, Mueller-Hinton Broth; format: cell-based; conditions: Enterococcus faecalis, ATCC51575, performed by WuXi in Mueller-Hinton Broth
Experimental: as §1

[7] = system: E. coli ATCC BAA-198; test: MIC, WuXi, Mueller-Hinton Broth; format: cell-based; conditions: Escherichia coli, ATCCBAA198, performed by WuXi in Mueller-Hinton Broth
Experimental: as §1

[8] = system: A. baumannii ATCC 17978; test: MIC, WuXi, Mueller-Hinton Broth; format: cell-based; conditions: Acinetobacter baumannii, ATCC17978, performed by WuXi in Mueller-Hinton Broth
Experimental: as §1

[9] = system: E. coli lptd34213; test: Growth with thymidine supplementation; format: cell-based; conditions: fluorofolin 50 μg/mL, 0.3 mM thymidine; also with SMX
Experimental: FIG. 6F quantifies P. aeruginosa PA14 or E. coli lptd4213 treated with fluorofolin 50 μg/mL in the presence or absence of 0.3 mM thymidine.
FIG. 6G quantifies E. coli lptd4213 treated with fluorofolin 50 μg/mL and SMX (78.1 μg/mL) in the presence or absence of 0.3 mM thymidine or 0.3 mM TMI supplementation, Curves represent optical at 600 nm (OD600) of 2 biological replicates. Mean±SD are shown.
Where listed, growth media were prepared according manufacturer recommendations: LB Broth and LB Broth supplemented with 0.3 mM thymine (BD Biosciences 244610, Alfa Aesar A15879), 0.3 mM methionine (Sigma-Aldrich M9625), 0.3 mM inosine (EMD Millipore 4060), Mueller Hinton II Broth (Cation-Adjusted)/(CAMHB) (BD 212322) or 0.3 mM thymidine (Sigma-Aldrich T1895), Gutnick Minimal Media (1.0 g/L K2SO4, 13.5 g/L K2HPO4, 4.7 g/L KH2PO4, 0.1 g/L of MgSO4-7H2O, 10 mM NH4Cl as a nitrogen source, and 0.4% w/v glucose as a carbon source)^62.

[10] = system: WI-38 cells; test: Mammalian cell cytotoxicity (CyQUANT); format: cell-based; conditions: 72 hours
Experimental: FIG. 5D provides IC50 of fluorofolin against in vitro mammalian cell lines relative to the IC50 of IRS-16. HLF: human lung fibroblast, HK-2: human kidney epithelial, PBMC: peripheral blood mononuclear cell, WI-38: Embryonic lung tissue.
After 24 hours, DMSO or compounds were added in 3-fold dilutions and incubated for 72 hours. For PBMC, CellTiter-Glo Reagent was added in equal volume and incubated for 30 min after which luminescence was read. For other cell types, CyQUANT Detection Reagent was added in equal volume and incubated for 1 hour after which fluorescence was read with standard green filter set (508/527 nm ex). Cell toxicity was evaluated by Pharmaron, Inc. (Beijing, […]).

[11] = biological target: T2, purified E. coli DHFR (FolA) (Escherichia coli, UniProt P0ABQ4); test: In vitro DHFR (FolA) activity, NADPH consumption at 340 nm; format: biochemical; conditions: Hill equation fit
T2 construct: purchased Genscript (Piscataway, NJ)

Nc1nc(N)c2c(ccc3c2ccn3Cc2ccnc(F)c2)n1 [fluorofolin]
type of antibacterial activity [1]: bacteriostatic | IC50 [2]: 14 ± 4 nM | permeabilization of red blood cell membranes (hemolysis) [3]: did not cause significant permeabilization | MIC [4]: 0.03 µg/mL (≈ 0.0973 µM) | MIC [5]: 0.03 µg/mL (≈ 0.0973 µM) | MIC [6]: 0.01 µg/mL (≈ 0.0324 µM) | MIC [7]: 7.11 µg/mL (≈ 23.1 µM) | MIC [8]: 0.8 µg/mL (≈ 2.59 µM) | rescue of growth inhibition by thymidine supplementation alone [9]: Rescue from fluorofolin inhibition was also shown | increase in IC50 compared to IRS-16 [10]: 58.5 fold | IC50 [11]: 2.5 ± 1.1 nM

— patent US20260138981A1, “DIHYDROFOLATE REDUCTASE INHIBITORS FOR ANTI-BIOTIC RESISTANT INFECTIONS” (THE TRUSTEES OF PRINCETON UNIVERSITY, priority 2022, published 2026)
